In ChEMBL document CHEMBL3120136 (J Med Chem, 2014):
Converted amounts (≈) assume the structure as drawn.

How the values were obtained:
[1] = Oral bioavailability in monkey liver; type: ADME, organism-based, Macaca mulatta; conditions: rhesus monkey
Cytochrome P450 3A4 [2] = molecular target: T1, Cytochrome P450 3A4 (Homo sapiens, UniProt P08684); assay: Time-dependent induction of CYP3A4 (unknown origin); type: ADME
Cytochrome P450 2C19 = Cytochrome P450 2C19 (Homo sapiens, UniProt P33261); assay: Inhibition of CYP2C19 (unknown origin); type: ADME
[3] = Metabolic stability in cynomolgus monkey hepatocytes assessed as extraction ratio at 1 uM; type: ADME, cell-based, Macaca fascicularis, Hepatocyte; conditions: read-out: ERH
Rattus norvegicus = assay: Volume of distribution at steady state in Sprague-Dawley rat at 1 mg/kg, iv by HPLC-MS/MS analysis; conditions: in vivo
Hepatitis C virus [4] = assay: Ratio of EC50 for Hepatitis C virus harboring NS3/4A protease A156T mutant gene to EC50 for Hepatitis C virus harboring wild type NS3/4A protease infected in human HuH7 cells; type: functional, Hepacivirus hominis, Huh-7
[5] = Dissociation constant, pKa of the compound; type: physicochemical
[6] = Lipophilicity, log D of the compound; type: physicochemical; conditions: octanol/water
[7] = Inhibition of Hepatitis C virus genotype 1b NS3/4A protease using Ac-DE-Dap(QXL520)-EE-Abu-psi-[COO]-AS-Cys(5-FAMsp)-NH2 as substrate by FRET analysis; parameters: species or system Hepatitis C virus subtype 1b
Hepatitis C virus [8] = assay: Antiviral activity against Hepatitis C virus genotype 2 infected in human HuH7 cells assessed as decrease in replicon RNA level after 2 days by TaqMan Gold RT-PCR analysis; type: functional, organism-based, Hepacivirus hominis; conditions: genotype 2, Huh-7, 48 h
Hepatitis C virus [9] = assay: Antiviral activity against Hepatitis C virus harboring NS3/4A protease A156T mutant gene infected in human HuH7 cells assessed as inhibition of HCV subgenomic replicon replication after 72 hrs by ELISA; type: functional, organism-based, Hepacivirus hominis; conditions: Huh-7, 72 h
[10] = Cytotoxicity against human MT4 cells; type: cell-based
[11] = Aqueous solubility of the compound at pH 1.2 by modified shake-flask method; type: physicochemical
NS3 protease = NS3 protease (Hepacivirus C, UniProt C1KIQ2, A156T); assay: Inhibition of Hepatitis C virus genotype 1a NS3/4A protease A156T mutant expressed in Escherichia coli BL21 (DE3) cells assessed as substrate cleavage using Ac-DE-Dap(QXL520)-EE-Abu-psi-[COO]AS-C(5-FAMsp)-NH2 as substrate by plate reader analysis; parameters: species or system Hepatitis C virus subtype 1a
[12] = Inhibition of Hepatitis C virus full-length NS3/4A protease assessed as quenched-fluorogenic RET-S1 substrate cleavage incubated for 10 mins prior to substrate addition by FRET analysis; parameters: species or system Hepacivirus hominis
[13] = AUC (0 to 24 hrs) in Sprague-Dawley rat liver at 30 mg/kg, po by HPLC-MS/MS analysis; type: ADME, organism-based; parameters: time < 24 hr, dose 30 mg/kg, route oral
[14] = Inhibition of Hepatitis C virus genotype 1a wild type NS3/4A protease expressed in Escherichia coli BL21 (DE3) cells assessed as substrate cleavage using Ac-DE-Dap(QXL520)-EE-Abu-psi-[COO]AS-C(5-FAMsp)-NH2 as substrate by plate reader analysis; parameters: species or system Hepatitis C virus subtype 1a
[15] = Inhibition of Hepatitis C virus genotype 3a NS3/4A protease using Ac-DE-Dap(QXL520)-EE-Abu-psi-[COO]-AS-Cys(5-FAMsp)-NH2 as substrate by FRET analysis; parameters: species or system Hepatitis C virus subtype 3a
Cytochrome P450 2D6 = Cytochrome P450 2D6 (Homo sapiens, UniProt P10635); assay: Inhibition of CYP2D6 (unknown origin); type: ADME
Hepatitis C virus [16] = assay: Antiviral activity against Hepatitis C virus genotype 1b infected in human HuH7 cells assessed as decrease in replicon RNA level after 2 days by TaqMan Gold RT-PCR analysis; type: functional, organism-based, Hepacivirus hominis; conditions: Huh-7, 48 h
[17] = Metabolic stability in human hepatocytes assessed as extraction ratio at 1 uM; type: ADME, cell-based, Hepatocyte; conditions: read-out: ERH
[18] = Inhibition of Hepatitis C virus genotype 5 NS3/4A protease using Ac-DE-Dap(QXL520)-EE-Abu-psi-[COO]-AS-Cys(5-FAMsp)-NH2 as substrate by FRET analysis
[19] = Ratio of drug level in liver to plasma in dog; type: ADME, tissue-based, Canis lupus familiaris; conditions: liver and plasma
Hepatitis C virus [20] = assay: Antiviral activity against Hepatitis C virus harboring wild type NS3/4A protease infected in human HuH7 cells assessed as inhibition of HCV subgenomic replicon replication after 72 hrs by ELISA; type: functional, organism-based, Hepacivirus hominis; conditions: Huh-7, 72 h
[21] = Permeability from apical to basolateral side of human Caco2 cells; type: ADME, cell-based; conditions: Caco-2, read-out: permeability
Hepatitis C virus [22] = assay: Antiviral activity against Hepatitis C virus […] isolate Con1 harboring NS3/4A protease A156T mutant gene infected in human HuH7 cells assessed as inhibition of HCV replicon replication by luciferase assay; type: functional, organism-based, Hepacivirus hominis; conditions: isolate Con1, Huh-7
[23] = Plasma clearance in rat assessed as extraction ratio; type: ADME, organism-based; conditions: read-out: ERH
[24] = molecular target: Voltage-gated inwardly rectifying potassium channel KCNH2 (Homo sapiens, UniProt Q12809); assay: Inhibition of human ERG at 10 uM
Cytochrome P450 1A2 = molecular target: T2, Cytochrome P450 1A2 (Homo sapiens, UniProt P05177); assay: Inhibition of CYP1A2 (unknown origin); type: ADME
T2 sequence (P05177 whole entry): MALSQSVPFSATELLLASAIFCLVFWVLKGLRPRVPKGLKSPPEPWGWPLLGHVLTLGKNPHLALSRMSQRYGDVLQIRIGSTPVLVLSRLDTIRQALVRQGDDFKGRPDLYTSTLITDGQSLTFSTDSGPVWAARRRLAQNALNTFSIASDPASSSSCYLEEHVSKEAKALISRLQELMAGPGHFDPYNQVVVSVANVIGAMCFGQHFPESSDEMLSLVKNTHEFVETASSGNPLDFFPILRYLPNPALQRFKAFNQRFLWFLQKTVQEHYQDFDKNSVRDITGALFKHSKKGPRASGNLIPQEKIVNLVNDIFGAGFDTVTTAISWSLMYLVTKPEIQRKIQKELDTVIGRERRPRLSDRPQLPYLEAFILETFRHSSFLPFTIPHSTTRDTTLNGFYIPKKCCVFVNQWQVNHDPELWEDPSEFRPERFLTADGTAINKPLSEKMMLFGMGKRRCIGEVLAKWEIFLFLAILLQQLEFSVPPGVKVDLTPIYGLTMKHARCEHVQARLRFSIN

Hepatitis C virus [25] = assay: Antiviral activity against Hepatitis C virus […] isolate Con1 harboring wild type NS3/4A protease infected in human HuH7 cells assessed as inhibition of HCV replicon replication by luciferase assay; type: functional, organism-based, Hepacivirus hominis; conditions: isolate Con1, Huh-7
Cytochrome P450 3A4 [26] = molecular target: T1, Cytochrome P450 3A4; assay: Inhibition of CYP3A4 (unknown origin); type: ADME
[27] = Aqueous solubility of the compound at pH 7.4 by modified shake-flask method; type: physicochemical
Cytochrome P450 2C9 = Cytochrome P450 2C9 (Homo sapiens, UniProt P11712); assay: Inhibition of CYP2C9 (unknown origin); type: ADME
Hepatitis C virus [28] = assay: Antiviral activity against Hepatitis C virus infected in human HuH7 cells assessed as inhibition of HCV subgenomic replicon replication after 72 hrs by ELISA; type: functional, organism-based, Hepacivirus hominis, Huh-7; conditions: Hepatitis C virus, Huh-7, 72 h; read-out: EC50
Hepatitis C virus [29] = assay: Antiviral activity against Hepatitis C virus genotype 3 infected in human HuH7 cells assessed as decrease in replicon RNA level after 2 days by TaqMan Gold RT-PCR analysis; type: functional, organism-based, Hepacivirus hominis; conditions: genotype 3, Huh-7, 48 h
[30] = AUC (0 to 24 hrs) in Sprague-Dawley rat plasma at 30 mg/kg, po by HPLC-MS/MS analysis; type: ADME, organism-based; parameters: time < 24 hr, dose 30 mg/kg, route oral
[31] = Aqueous solubility of the compound at pH 6.5 by modified shake-flask method; type: physicochemical
[32] = Inhibition of Hepatitis C virus genotype 2b NS3/4A protease using Ac-DE-Dap(QXL520)-EE-Abu-psi-[COO]-AS-Cys(5-FAMsp)-NH2 as substrate by FRET analysis; parameters: species or system Hepatitis C virus subtype 2b
[33] = Inhibition of Hepatitis C virus genotype 4 NS3/4A protease using Ac-DE-Dap(QXL520)-EE-Abu-psi-[COO]-AS-Cys(5-FAMsp)-NH2 as substrate by FRET analysis
[34] = Ratio of AUC (0 to 24 hrs) in liver to plasma in Sprague-Dawley rat at 30 mg/kg, po by HPLC-MS/MS analysis; type: ADME, organism-based; parameters: dose 30 mg/kg, route oral; conditions: Sprague-Dawley, liver and plasma, read-out: Ratio AUC
[35] = Metabolic stability in dog hepatocytes assessed as extraction ratio at 1 uM; type: ADME, cell-based, Canis lupus familiaris, Hepatocyte; conditions: read-out: ERH
[36] = Inhibition of Hepatitis C virus genotype 1a NS3/4A protease using Ac-DE-Dap(QXL520)-EE-Abu-psi-[COO]-AS-Cys(5-FAMsp)-NH2 as substrate by FRET analysis; parameters: species or system Hepatitis C virus subtype 1a
[37] = Inhibition of Hepatitis C virus genotype 6 NS3/4A protease using Ac-DE-Dap(QXL520)-EE-Abu-psi-[COO]-AS-Cys(5-FAMsp)-NH2 as substrate by FRET analysis
[38] = Oral bioavailability in rat liver; type: ADME, organism-based
[39] = Efflux ratio of permeability from basolateral to apical side over apical to basolateral side in human Caco2 cells; type: ADME, cell-based; conditions: Caco-2
[40] = Metabolic stability in rat hepatocytes assessed as extraction ratio at 1 uM; type: ADME, cell-based, Hepatocyte; conditions: read-out: ERH
[41] = Ratio of EC50 for Hepatitis C virus infected in human HuH7 cells to IC50 for Hepatitis C virus full-length NS3/4A protease; parameters: species or system Huh-7

T1 sequence (P08684 whole entry): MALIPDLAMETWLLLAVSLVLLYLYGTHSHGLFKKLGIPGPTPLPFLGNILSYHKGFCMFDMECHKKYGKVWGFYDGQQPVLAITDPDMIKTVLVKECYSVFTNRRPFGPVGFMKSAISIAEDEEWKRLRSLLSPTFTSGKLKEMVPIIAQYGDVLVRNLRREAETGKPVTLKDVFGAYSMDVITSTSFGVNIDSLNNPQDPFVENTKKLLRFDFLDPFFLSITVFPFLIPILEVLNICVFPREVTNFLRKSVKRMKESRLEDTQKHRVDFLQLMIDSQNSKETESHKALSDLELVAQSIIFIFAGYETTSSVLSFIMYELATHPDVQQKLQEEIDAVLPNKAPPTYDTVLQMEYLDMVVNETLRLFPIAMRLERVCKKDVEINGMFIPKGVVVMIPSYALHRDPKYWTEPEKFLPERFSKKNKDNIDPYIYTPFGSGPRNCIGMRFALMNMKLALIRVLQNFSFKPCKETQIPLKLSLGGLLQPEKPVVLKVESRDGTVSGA
Chain of Voltage-gated inwardly rectifying potassium channel KCNH2 (Q12809 whole entry): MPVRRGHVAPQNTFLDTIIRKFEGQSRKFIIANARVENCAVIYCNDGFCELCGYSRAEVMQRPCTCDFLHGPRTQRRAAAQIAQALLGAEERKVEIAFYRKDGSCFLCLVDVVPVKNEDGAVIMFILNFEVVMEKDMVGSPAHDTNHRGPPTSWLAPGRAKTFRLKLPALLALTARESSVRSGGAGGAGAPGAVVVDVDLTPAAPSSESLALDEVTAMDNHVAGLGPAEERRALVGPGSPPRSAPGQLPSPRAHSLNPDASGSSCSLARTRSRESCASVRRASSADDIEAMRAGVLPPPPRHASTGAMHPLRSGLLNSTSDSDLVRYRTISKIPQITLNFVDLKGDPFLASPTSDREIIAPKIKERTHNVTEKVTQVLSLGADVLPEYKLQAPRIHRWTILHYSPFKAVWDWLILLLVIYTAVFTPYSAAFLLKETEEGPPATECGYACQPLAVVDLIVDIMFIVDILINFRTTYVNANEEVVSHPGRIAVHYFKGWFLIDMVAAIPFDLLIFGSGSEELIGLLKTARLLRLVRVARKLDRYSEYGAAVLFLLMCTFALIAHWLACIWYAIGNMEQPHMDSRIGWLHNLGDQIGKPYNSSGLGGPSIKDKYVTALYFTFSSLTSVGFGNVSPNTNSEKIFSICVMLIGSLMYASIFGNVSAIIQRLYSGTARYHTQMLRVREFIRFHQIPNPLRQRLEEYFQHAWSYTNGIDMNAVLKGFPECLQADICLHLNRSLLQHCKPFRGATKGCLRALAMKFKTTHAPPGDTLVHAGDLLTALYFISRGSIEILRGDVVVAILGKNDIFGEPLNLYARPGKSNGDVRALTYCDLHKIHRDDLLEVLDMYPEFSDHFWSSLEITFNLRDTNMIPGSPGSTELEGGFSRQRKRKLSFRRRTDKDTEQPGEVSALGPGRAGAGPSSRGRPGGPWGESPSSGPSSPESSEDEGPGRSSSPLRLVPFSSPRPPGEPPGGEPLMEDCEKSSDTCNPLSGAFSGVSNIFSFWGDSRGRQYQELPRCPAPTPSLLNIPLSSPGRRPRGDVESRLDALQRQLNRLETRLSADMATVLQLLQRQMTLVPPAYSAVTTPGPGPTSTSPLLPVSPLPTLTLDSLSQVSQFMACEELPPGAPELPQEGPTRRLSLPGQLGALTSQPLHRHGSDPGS
Chain of Cytochrome P450 2D6 (P10635 whole entry): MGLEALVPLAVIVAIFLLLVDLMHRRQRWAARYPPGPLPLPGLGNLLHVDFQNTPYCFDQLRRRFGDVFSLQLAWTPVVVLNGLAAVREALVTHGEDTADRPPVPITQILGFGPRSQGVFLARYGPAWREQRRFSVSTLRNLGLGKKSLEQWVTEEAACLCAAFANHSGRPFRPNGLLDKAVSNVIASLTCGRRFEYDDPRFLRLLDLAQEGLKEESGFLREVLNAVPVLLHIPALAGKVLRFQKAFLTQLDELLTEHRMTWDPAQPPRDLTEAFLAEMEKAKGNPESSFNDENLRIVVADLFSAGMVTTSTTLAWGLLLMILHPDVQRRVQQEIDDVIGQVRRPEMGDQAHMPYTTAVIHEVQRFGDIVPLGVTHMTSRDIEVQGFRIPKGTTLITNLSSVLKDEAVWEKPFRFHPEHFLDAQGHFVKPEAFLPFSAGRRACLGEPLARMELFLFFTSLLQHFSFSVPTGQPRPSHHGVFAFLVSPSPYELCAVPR
Chain of Cytochrome P450 2C19 (P33261 whole entry): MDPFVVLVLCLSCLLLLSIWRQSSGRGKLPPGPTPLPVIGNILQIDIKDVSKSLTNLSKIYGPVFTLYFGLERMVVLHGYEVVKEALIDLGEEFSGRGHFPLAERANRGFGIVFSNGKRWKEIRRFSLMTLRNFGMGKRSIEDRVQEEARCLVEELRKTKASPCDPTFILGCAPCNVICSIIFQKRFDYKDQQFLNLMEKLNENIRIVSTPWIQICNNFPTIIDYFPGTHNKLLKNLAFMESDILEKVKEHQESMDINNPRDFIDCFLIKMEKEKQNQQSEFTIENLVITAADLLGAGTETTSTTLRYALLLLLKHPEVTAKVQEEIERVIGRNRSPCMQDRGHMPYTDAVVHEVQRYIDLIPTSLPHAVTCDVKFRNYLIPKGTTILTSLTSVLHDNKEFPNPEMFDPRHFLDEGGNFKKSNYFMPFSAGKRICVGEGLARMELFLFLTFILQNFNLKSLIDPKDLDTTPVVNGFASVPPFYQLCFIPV
Chain of Cytochrome P450 2C9 (P11712 whole entry): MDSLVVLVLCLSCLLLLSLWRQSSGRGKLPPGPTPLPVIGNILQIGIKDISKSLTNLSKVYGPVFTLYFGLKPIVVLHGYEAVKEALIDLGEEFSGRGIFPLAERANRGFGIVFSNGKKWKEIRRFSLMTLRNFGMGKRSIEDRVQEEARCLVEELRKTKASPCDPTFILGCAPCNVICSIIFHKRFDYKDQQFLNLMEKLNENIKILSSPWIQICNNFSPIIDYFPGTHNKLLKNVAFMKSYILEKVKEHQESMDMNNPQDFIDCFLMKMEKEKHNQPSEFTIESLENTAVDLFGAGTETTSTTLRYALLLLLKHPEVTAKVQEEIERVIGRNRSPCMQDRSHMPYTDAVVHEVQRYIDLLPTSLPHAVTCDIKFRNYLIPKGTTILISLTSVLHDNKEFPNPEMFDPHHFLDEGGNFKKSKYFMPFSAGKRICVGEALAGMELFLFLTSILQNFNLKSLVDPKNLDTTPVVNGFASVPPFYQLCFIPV
Chain of NS3 protease (C1KIQ2 entry or part of it A156T): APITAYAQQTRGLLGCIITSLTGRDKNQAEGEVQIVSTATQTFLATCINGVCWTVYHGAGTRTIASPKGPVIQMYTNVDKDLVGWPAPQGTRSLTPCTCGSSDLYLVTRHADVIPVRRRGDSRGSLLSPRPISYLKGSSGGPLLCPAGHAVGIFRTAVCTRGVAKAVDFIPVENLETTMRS

Question: What does the source list for `CC(C)(C)OC(=O)N[C@H]1CCCCC/C=C\[C@@H]2C[C@@]2(C(=O)NS(=O)(=O)C2CC2)NC(=O)[C@@H]2C[C@@H](OC(=O)N3Cc4cccc(F)c4C3)CN2C1=O` [DANOPREVIR]?
Answer: bioavailability [1]: 78%; Activity (Cytochrome P450 3A4 [2]): Not Active; INH (Cytochrome P450 2C19): > 25 µM; hepatic extraction ratio at 1 µM [3]: 0.54; Vdss (Rattus norvegicus): 0.155 L/kg; Ratio EC50 (Hepatitis C virus [4]): 2; pKa [5]: 5.27; logD [6]: 2.1; IC50 [7]: 0.2 nM; EC50 (Hepatitis C virus [8]): 20 nM; EC50 (Hepatitis C virus [9]): 0.5 nM; CC50 [10]: 54000 nM; solubility thermodynamic [11]: 0.5 µg/mL (≈ 0.683 µM); Ki (NS3 protease): 44.8 nM; IC50 [12]: 1 nM; AUC(0-t) at 24 h [13]: 90800 ng·h/mL; Ki [14]: 1 nM; IC50 [15]: 3.5 nM; INH (Cytochrome P450 2D6): > 25 µM; EC50 (Hepatitis C virus [16]): 1.6 nM; hepatic extraction ratio at 1 µM [17]: 0.58; IC50 [18]: 0.2 nM; Kp [19]: 30; EC50 (Hepatitis C virus [20]): < 0.25 nM; Papp A→B [21]: < 2 ×10⁻⁶ cm/s; IC50 (Hepatitis C virus [22]): 5.7 nM; hepatic extraction ratio [23]: 0.04; inhibition (INH) [24]: Not Active; INH (Cytochrome P450 1A2): > 25 µM; IC50 (Hepatitis C virus [25]): 0.24 nM; INH (Cytochrome P450 3A4 [26]): 12 µM; solubility thermodynamic [27]: > 1000 µg/mL; INH (Cytochrome P450 2C9): > 25 µM; EC50 (Hepatitis C virus [28]): 2.4 nM; EC50 (Hepatitis C virus [29]): 20 nM; AUC(0-t) at 24 h [30]: 9500 ng·h/mL; solubility thermodynamic [31]: 548 µg/mL (≈ 749 µM); IC50 [32]: 1.6 nM; IC50 [33]: 0.2 nM; Kp [34]: 10; hepatic extraction ratio at 1 µM [35]: 0.23; IC50 [36]: 0.2 nM; IC50 [37]: 0.2 nM; bioavailability [38]: 15%; efflux ratio [39]: > 2; hepatic extraction ratio at 1 µM [40]: 0.06

Question: For `CC(C)(C)OC(=O)N[C@H]1CCCCC/C=C\[C@@H]2C[C@@]2(C(=O)O)NC(=O)[C@@H]2C[C@@H](OC(=O)N3CCc4ccccc4C3)CN2C1=O`, which Ratio [41] is on record?
Answer: Its Ratio is 10.

Question: What about the IC50 [12] of the same molecule?
Answer: Its IC50 is 177 nM.

Question: And the EC50 (Hepatitis C virus [28])?
Answer: Its EC50 is 2350 nM.
